# “And” between values parts separate entries of the source, which are not always exact repeats. Equal entries are not always repeated. Where two headings read alike, the source gives them in different places. Ends that are not written are not given here. Peptide text beside a SMILES is read from it.
# How the values were obtained:
# [1] = system: S. aureus DnaN-DnaN interaction (β-sliding clamp dimerization); assay: Bacterial two-hybrid (BTH) β-galactosidase assay of DnaN-DnaN interaction; format: cell-based, Staphylococcus aureus; conditions: for Ability to interfere with DnaN dimerization after reduction to 8-mers: cyclic 8-mers with the sequence SXXXXXXG expressed intracellularly, not shown; for Reduction of DnaN-DnaN interaction when produced intracellularly: cyclic peptides expressed in E. coli, Fig. 3
# Description: The library was screened for peptides able to disrupt DnaN-DnaN interaction of the Staphylococcus replisome by transforming into the R-BTH strain SC01 containing interacting Cya fusion proteins. Cells were plated on plates containing 5-FOA and 1 mM IPTG to induce expression of the cyclic peptides. We readily identified clones where expressed peptides restored cell viability in the presence of 5-FOA (Fig. 3A). To initially assess the activity of the selected peptides we determined their ability to reduce DnaN-DnaN interaction in the original two hybrid system.
# Figure 3 Identification of peptides that interfere with DnaN-DnaN interaction. […] After screening of our SICLOPPS library, growth was restored in 7 clones.A. (B) The cyclic peptides identified in (A) were expressed in the original bacterial two-hybrid strain (BTH101) containing T18:DnaN and DnaN:T25 fusion plasmids and the level of β-galactosidase activity was determined as described in Materials and Methods.
# Bacterial two-hybrid assay was performed as described previously. Derivatives of plasmids pUT18 and p25N encoding replication proteins were constructed by cloning PCR-amplified DNA fragments in frame with the T25 and T18 fragments of cya. T18 and T25 fusions were transformed into BTH101, and plated on plates containing 40 μg/ml of 5-bromo-4-chloro-indolyl-β-D-galactoside (X-gal) and relevant antibiotics. […] For β-galactosidase assays, cells were grown exponentially at 30°C in LB supplemented with 0.5 mM IPTG, and β-galactosidase activities were measured as described by.
# [2] = system: S. aureus strain 8325-4; assay: Growth (colony forming units) of S. aureus with or without DnaN overproduction after peptide addition; format: cell-based, Staphylococcus aureus; conditions: 40 μg/ml peptide, LB, 37°C, repeated 4 times; for Bacterial growth of uninduced cultures after peptide addition: 8 hours duration, colony forming units; for Bacterial growth of cultures overproducing DnaN after peptide addition: dnaN induced with 10 μM CdCl2 3 hours before (pSC141)
# Description: To ensure that the antibacterial effects of peptides III-5 and III-6 were the result of direct interaction of these peptides with the β-clamp, we decided to overproduce DnaN in S. aureus cells. The dnaN gene was cloned under control of the cadmium induclible pCAD promoter of plasmid pCN51 [37]. Cells were grown exponentially at 37°C in LB medium and 3 hours prior to peptide addition expression of dnaN was induced by addition of 10 μM CdCl2. At time T = 0 peptides III-5 or III-6 were added to a final concentration of 40 μg/ml which is very close to the MIC value for both of these peptides (Fig. 4).
# Figure 4 Overproduction of DnaN in S. aureus relieves the growth inhibition imposed by peptides III-5 and […]. S. aureus strain 8325-4 containing either the vector plasmid pCN51 (black filled squares) or plasmid pSC141 (grey triangles) was grown exponentially at 37°C in LB medium supplemented with 10 μg/ml erythromycin. CdCl2 was added to all cultures to a final concentration of 10 μM to induce overproduction of DnaN from pSC141 three hours prior to peptide addition. At T = 0, 40 μg/ml of peptide III-5 (middle panel) or III-6 (bottom panel) was added to the cultures. The number of colony forming units was determined by plating. The experiment were repeated 4 times with similar results.
# [3] = system: S. epidermidis; format: cell-based, Staphylococcus epidermidis; conditions: for Potency against S. epidermidis compared with S. aureus: cyclic peptides, data not shown
# Description: (§1) The antibacterial activities of the purified peptides were determined against Staphylococcus epidermidis and S. aureus. […] We can conclude that some but not all of the identified cyclic peptides are able to penetrate the bacterial membrane to find their intracellular target. […] As expected none of the peptides isolated had any activity towards E. coli, whereas they inhibited growth of B. subtilis, another gram positive bacterium (data not shown).
# [4] = system: S. aureus; format: cell-based, Staphylococcus aureus
# Description: as §1
# [5] = system: S. aureus or S. epidermidis; format: cell-based
# Source text: In agreement with this none of these peptides were particularly hydrophobic or cationic (Table 4). […] This could be tested by construction of deletion mutants lacking one or more of these permeases. We synthesized and tested linear counterparts of the active peptides III-5, III-6 and III-7. […] Increased antibacterial activity of peptides due to circularization has previously been described.
# [6] = system: DNA replication in S. aureus strain 8325-4; assay: DNA synthesis, incorporation of 3H-thymidine; format: cell-based, Staphylococcus aureus; conditions: 50 μg/ml peptide; LB, 37°C; TCA precipitate, scintillation counting; repeated 3 times
# Description: (§2) In order to test the direct effects of peptides III-5 and III-6 on DNA replication in S. aureus, strain 8325-4 was grown exponentially at 37°C in LB medium. Incorporation of ^3H-thymidine into the DNA was determined at various times after addition of 50 μg/ml of peptides III-5 or III-6. […] Protein synthesis, determined as incorporation of ^35S-methionine, was unaffected by peptide addition for at least 180 minutes (Fig. S1) which is well after the onset of DNA synthesis inhibition. Therefore the DNA replication inhibition is not a consequence of a more general effect on protein synthesis, and we conclude that peptide III-5 and III-6 inhibits replication by interfering with the dnaN encoded β-clamp.
# Figure 5 Peptides III-5 and III-6 Inhibit DNA replication. […] Samples were taken at the indicated time-points and incorporation of ^3H into DNA was measured by liquid scintillation counting of TCA precipitated material. […]
# For measuring DNA and protein synthesis, S. aureus strain 8325−4 was grown exponentially at 37°C in LB supplemented with 0.2 ml ^3H-thymidine (20 Ci/mmol,1 mCi/ml; Perkin Elmer Inc.) and uridine (50 μg/ml). […] The incorporation of ^3H into DNA was determined using a 1450 MicroBeta TriLux Microplate and Scintillation and Luminiscence counter (Perkin Elmer Inc.).
# [7] = system: Protein synthesis in S. aureus strain 8325-4; assay: Protein synthesis, incorporation of 35S-methionine; format: cell-based, Staphylococcus aureus; conditions: 50 μg/ml peptide; for at least 180 minutes; repeated 3 times
# Description: as §2
# S. aureus strain 8325-4 was grown exponentially in LB supplemented with ^35S-methionine. At T=0 peptide III-5 (grey triangles) or III-6 (green squares) was added to a final concentration of 50 μg/ml. Addition of buffer (red filled circles) served as control. Samples were taken at the indicated time-points and incorporation of ^35S into protein was measured by liquid scintillation counting of TCA precipitated material. The experiment was repeated 3 times with similar result. The result from one experiment is shown.
# [8] = system: S. aureus strain 8325-4; assay: Fluorescence microscopy with DAPI staining (cell size, DNA content); format: cell-based, Staphylococcus aureus; conditions: 50 μg/ml; LB, 37°C
# Source text: The effect of peptides III-5 and III-6 on cell size and DNA content was visualized by fluorescence microscopy. […] A likely explanation is that peptide III-6, through its inhibitory effect on DNA synthesis, also results in an inability for cells to divide. Similar observations have been made for E. coli where failure to complete chromosome replication result in division inhibition and filamentation.
# Figure 7 Peptide III-6 affect S. aureus cell size, morphology and DNA content. S. aureus strain 8325−4 was grown exponentially at 37°C in LB medium. […] Cells were stained with DAPI prior to fluorescence microscopy (Materials and Methods).
# S. aureus strain 8325-4 or B. subtilis strain 168 was grown exponentially at 37°C in LB. […] The cells were stained with the live/dead stain according to the manufacturer. Phase-contrast and fluorescence images were acquired using a Leica DM5000B microscope with a×100 HCX PL APO NA 1.4 objective and a Leica DFC350FX cooled charge-coupled device camera controlled through FW4000 software (version 1.2.1; Leica Microsystems).
# [9] = target: DnaN (β), β-sliding clamp of S. aureus (S. aureus) (UniProt P0A024)
# Chain of UniProt P0A024 (P0A024 whole entry): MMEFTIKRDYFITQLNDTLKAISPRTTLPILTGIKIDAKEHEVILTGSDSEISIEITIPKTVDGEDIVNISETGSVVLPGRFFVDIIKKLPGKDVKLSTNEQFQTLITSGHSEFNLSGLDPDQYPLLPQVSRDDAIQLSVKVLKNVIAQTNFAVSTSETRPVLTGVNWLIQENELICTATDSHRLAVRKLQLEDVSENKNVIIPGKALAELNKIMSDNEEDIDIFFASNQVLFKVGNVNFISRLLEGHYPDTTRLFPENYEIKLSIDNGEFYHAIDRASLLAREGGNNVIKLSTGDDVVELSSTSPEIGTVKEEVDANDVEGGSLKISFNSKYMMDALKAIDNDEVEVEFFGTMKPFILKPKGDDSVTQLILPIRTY
molecule,measurement,setting,value
CC(C)C[C@@H]1NC(=O)[C@H](Cc2ccccc2)NC(=O)[C@H](C(C)C)NC(=O)[C@H](CCCNC(=N)N)NC(=O)[C@H](CS)NC(=O)[C@H](CS)NC(=O)CNC(=O)[C@H](CS)NC1=O [III-5] (cyclo(CRVFLCGC)),Ability to interfere with DnaN dimerization after reduction to 8-mers,[1],retaining their ability to interfere with DnaN dimerization
same,Reduction of DnaN-DnaN interaction when produced intracellularly,[1],efficient in reducing DnaN-DnaN interaction
same,Bacterial growth of uninduced cultures after peptide addition,[2],cessation of bacterial growth
same,Bacterial growth of cultures overproducing DnaN after peptide addition,[2],continued growth
same,Potency against S. epidermidis compared with S. aureus,[3],somewhat more potent against S. epidermidis
same,MIC for cyclic peptide,"[4]; cyclic 8-mer CRXXXXXX, determined for S. aureus, highest concentration tested 100 μg/ml",50 µg/mL
same,MIC for cyclic peptide (molar),"[4]; cyclic 8-mer CRXXXXXX, determined for S. aureus, value in brackets",57 µM
same,MIC values (range given for the three active cyclic peptides),"[5]; cyclic peptides, summary over S. aureus (III-5, III-6) and S. epidermidis (III-7)",20−50 μg/ml
same,Accumulation of DNA (3H-thymidine incorporation),[6],severely reduced accumulation of DNA
same,Protein synthesis (35S-methionine incorporation),[7],unaffected
CC(C)C[C@@H]1NC(=O)CNC(=O)[C@H](CCC(N)=O)NC(=O)[C@H](CO)NC(=O)[C@H](CCCNC(=N)N)NC(=O)[C@H](CS)NC(=O)[C@H](CCCCN)NC(=O)[C@H](Cc2ccccc2)NC1=O [III-6] (cyclo(CRSQGLFK)),Ability to interfere with DnaN dimerization after reduction to 8-mers,[1],retaining their ability to interfere with DnaN dimerization
same,Reduction of DnaN-DnaN interaction when produced intracellularly,[1],efficient in reducing DnaN-DnaN interaction
same,Bacterial growth of uninduced cultures after peptide addition,[2],cessation of bacterial growth
same,Bacterial growth of cultures overproducing DnaN after peptide addition,[2],continued growth
same,Cell size,[8],increased cell size
same,DNA distribution between cells (DAPI staining),[8],uneven DNA distribution between cells
same,Potency against S. epidermidis compared with S. aureus,[3],somewhat more potent against S. epidermidis
same,MIC values (range given for the three active cyclic peptides),[5],20−50 μg/ml
same,Accumulation of DNA (3H-thymidine incorporation),[6],severely reduced accumulation of DNA
same,Protein synthesis (35S-methionine incorporation),[7],unaffected
CC(C)[C@@H]1NC(=O)[C@H](Cc2c[nH]c3ccccc23)NC(=O)[C@H](C(C)C)NC(=O)[C@H](Cc2c[nH]cn2)NC(=O)CNC(=O)[C@H](CCCNC(=N)N)NC(=O)[C@H](CS)NC(=O)[C@H](CC(=O)O)NC1=O [III-7] (cyclo(CRGHVWVD)),Ability to interfere with DnaN dimerization after reduction to 8-mers,[1],retaining their ability to interfere with DnaN dimerization
same,Reduction of DnaN-DnaN interaction when produced intracellularly,[1],efficient in reducing DnaN-DnaN interaction
same,MIC values (range given for the three active cyclic peptides),[5],20−50 μg/ml
CC(C)C[C@@H]1NC(=O)[C@H](CO)NC(=O)[C@H](CCC(=O)O)NC(=O)[C@H](Cc2ccccc2)NC(=O)[C@H]([C@@H](C)O)NC(=O)[C@H](CO)NC(=O)[C@H](CCCNC(=N)N)NC(=O)[C@H](CS)NC1=O [III-8] (cyclo(CRSTFESL)),Reduction of DnaN-DnaN interaction when produced intracellularly,[1],efficient in reducing DnaN-DnaN interaction
same,MIC for cyclic peptide,[4],> 100 µg/mL
CC(C)C[C@H](NC(=O)[C@H](Cc1ccccc1)NC(=O)[C@@H](NC(=O)[C@H](CCCNC(=N)N)NC(=O)[C@@H](N)CS)C(C)C)C(=O)N[C@@H](CS)C(=O)NCC(=O)N[C@@H](CS)C(=O)O [linear III-5] (H-CRVFLCGC-OH),MIC for linear peptide,[4],> 560 µg/mL
CC(C)C[C@H](NC(=O)[C@@H](NC(=O)[C@H](Cc1ccccc1)NC(=O)[C@H](CC(C)C)NC(=O)[C@H](Cc1c[nH]c2ccccc12)NC(=O)[C@H](CS)NC(=O)[C@H](CCCNC(=N)N)NC(=O)[C@@H](N)CS)C(C)C)C(=O)O [linear IV-N8] (H-CRCWLFVL-OH),MIC for linear peptide,[3],>1124 ^4 (>1.08) μg/ml
CRGHVWVD [linear III-7],MIC for linear peptide,[4],> 560 µg/mL
CRSQGLFK [linear III-6],MIC for linear peptide,[4],> 560 µg/mL
"cyclo(CRCWLFVL) (cysteine pairing not given here) [IV-N8, cyclic 8-mer CRCWLFVL synthesized via FMOC SPPS]",Ability to interfere with DnaN dimerization after reduction to 8-mers,[1],retaining their ability to interfere with DnaN dimerization
same,MIC for cyclic peptide,"[3]; cyclic 8-mer CRXXXXXX, determined for S. epidermidis, highest concentration tested 100 μg/ml",> 100 µg/mL
purified cyclic peptide III-5 (CRVFLCGC),"MIC for cyclic peptide, determined for S. aureus",[9],50 μg/ml and 57 μM
purified cyclic peptide III-6 (CRSQGLFK),"MIC for cyclic peptide, determined for S. aureus",[9],50 μg/ml and 54 μM
